biological target: Endothelial lipase (EL) (Homo sapiens (Human), UniProt Q9Y5X9); test: Endothelial lipase (EL) enzymatic assay with fluorescent substrate A10070 in DMPG vesicles; format: biochemical; settings: not given
Method in brief: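 EL from conditioned medium of HT-1080 cells engineered to overexpress endogenous EL; HL partially purified from conditioned medium of HL-overexpressing COS cells. Enzyme preincubated with compound 30 min at 37° C in 50 mM HEPES pH 8.0, 50 mM NaCl, 1 mM CaCl2; DMPG vesicles carrying FRET substrate (0.11 mole fraction) then added.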

Sequence of Endothelial lipase (EL) (Q9Y5X9 21-500): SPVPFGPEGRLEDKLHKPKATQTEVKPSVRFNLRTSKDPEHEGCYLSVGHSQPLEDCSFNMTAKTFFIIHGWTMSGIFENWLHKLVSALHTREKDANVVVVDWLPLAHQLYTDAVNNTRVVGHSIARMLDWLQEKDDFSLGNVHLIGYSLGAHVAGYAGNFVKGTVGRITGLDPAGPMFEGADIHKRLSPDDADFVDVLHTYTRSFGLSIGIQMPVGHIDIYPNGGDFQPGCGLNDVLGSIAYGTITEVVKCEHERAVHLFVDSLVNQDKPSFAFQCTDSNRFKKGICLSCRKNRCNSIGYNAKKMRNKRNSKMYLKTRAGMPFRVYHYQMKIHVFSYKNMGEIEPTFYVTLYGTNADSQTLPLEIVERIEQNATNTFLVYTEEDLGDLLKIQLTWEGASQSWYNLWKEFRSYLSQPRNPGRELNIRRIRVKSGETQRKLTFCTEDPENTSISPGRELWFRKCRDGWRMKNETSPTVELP

SMILES	IC50 [µM]
O=C(CNC(=O)C(c1nc2cc(F)c(-c3ccc(F)nc3)cc2s1)S(=O)(=O)N1CCOCC1)NC1CC1 (stereo not drawn) [Example 486, N-[(cyclopropyl-carbamoyl)methyl]-2-[5-fluoro-6-(6-fluoropyridin-3-yl)-1,3-benzothiazol-2-yl]-2-(morpholine-4-sulfonyl)acetamide]	0.048
Cc1cc(-c2cc3sc(C(C(=O)NCC(=O)NC4CC4)S(=O)(=O)N4CCOCC4)nc3cc2F)cnn1 (stereo not drawn) [Example 487, N-[(cyclopropyl-carbamoyl)methyl]-2-[5-fluoro-6-(6-methylpyridazin-4-yl)-1,3-benzothiazol-2-yl]-2-(morpholine-4-sulfonyl) acetamide]	0.093
COC(=O)Nc1ccc(-c2cc3sc(C(C(=O)NCC(=O)NC4CC4)S(=O)(=O)N4CCOCC4)nc3cc2F)cc1F (stereo not drawn) [Example 488, methyl N-{4-[2-({[(cyclopropyl-carbamoyl)methyl]carbamoyl} (morpholine-4-sulfonyl)methyl)-5-fluoro-1,3-benzothiazol-6-yl]-2-fluorophenyl} carbamate]	0.013
CN(C)S(=O)(=O)C(C(=O)NCC(=O)NC1CC1)c1nc2c(F)cc(-c3ccc(F)nc3)cc2s1 (stereo not drawn) [Example 489, N-[(cyclopropyl-carbamoyl)methyl]-2-(dimethyl-sulfamoyl)-2-[4-fluoro-6-(6-fluoropyridin-3-yl)-1,3-benzothiazol-2-yl]acetamide]	0.165
Cc1cc(-c2cc(F)c3nc(C(C(=O)NCC(=O)NC4CC4)S(=O)(=O)N(C)C)sc3c2)cnn1 (stereo not drawn) [Example 490, N-[(cyclopropyl-carbamoyl)methyl]-2-(dimethyl-sulfamoyl)-2-[4-fluoro-6-(6-methypylridazin-4-yl)-1,3-benzothiazol-2-yl]acetamide]	0.207
Cc1ncc(-c2cc(F)c3nc(C(C(=O)NCC(=O)NC4CC4)S(=O)(=O)N(C)C)sc3c2)cn1 (stereo not drawn) [Example 491, N-[(cyclopropyl-carbamoyl)methyl]-2-(dimethyl-sulfamoyl)-2-[4-fluoro-6-(2-methylpyrimidin-5-yl)-1,3-benzothiazol-2-yl]acetamide]	0.082
CN(C)S(=O)(=O)C(C(=O)NCC(=O)NC1CC1)c1nc2c(F)cc(-c3ccc4[nH]c(=O)ccc4c3)cc2s1 (stereo not drawn) [Example 492, N-[(cyclopropyl-carbamoyl)methyl]-2-(dimethyl-sulfamoyl)-2-[4-fluoro-6-(2-oxo-1,2-dihydroquinolin-6-yl)-1,3-benzothiazol-2-yl]acetamide]	0.005
CN(C)S(=O)(=O)C(C(=O)NCC(=O)NC1CC1)c1nc2c(F)cc(-c3ccc4c(=O)n(C)ccc4c3)cc2s1 (stereo not drawn) [Example 493, N-[(cyclopropyl-carbamoyl)methyl]-2-(dimethyl-sulfamoyl)-2-[4-fluoro-6-(2-methyl-1-oxo-1,2-dihydro-isoquinolin-6-yl)-1,3-benzothiazol-2-yl]acetamide]	0.001
CN(C)S(=O)(=O)C(C(=O)NCC(=O)NC1CC1)c1nc2c(F)cc(-c3ccc4cnn(C)c4c3)cc2s1 (stereo not drawn) [Example 494, N-[(cyclopropyl-carbamoyl)methyl]-2-(dimethyl-sulfamoyl)-2-[4-fluoro-6-(1-methyl-1H-indazol-6-yl)-1,3-benzothiazol-2-yl] acetamide]	0.044
CN(C)S(=O)(=O)C(C(=O)NCC(=O)NC1CC1)c1nc2c(F)cc(-c3ccc(NC(=O)OCc4ccccc4)cc3)cc2s1 (stereo not drawn) [Example 495, benzyl N-{4-[2-({[(cyclopropyl-carbamoyl)methyl]carbamoyl} (dimethyl-sulfamoyl)methyl)-4-fluoro-1,3-benzothiazol-6-yl]phenyl}carbamate]	0.002
COC(=O)Nc1ccc(-c2cc(F)c3nc(C(C(=O)NCC(=O)NC4CC4)S(=O)(=O)N(C)C)sc3c2)cc1 (stereo not drawn) [Example 496, methyl N-{4-[2-({[(cyclopropyl-carbamoyl)methyl]carbamoyl} (dimethyl-sulfamoyl)methyl)-4-fluoro-1,3-benzothiazol-6-yl]phenyl} carbamate]	0.002
CN(C)S(=O)(=O)C(C(=O)NCC(=O)NC1CC1)c1nc2c(F)cc(-c3ccc(-n4ccccc4=O)cc3)cc2s1 (stereo not drawn) [Example 497, N-[(cyclopropyl-carbamoyl)methyl]-2-(dimethyl-sulfamoyl)-2-{4-fluoro-6-[4-(2-oxo-1,2-dihydropyridin-1-yl)phenyl]-1,3-benzothiazol-2-yl}acetamide]	0.003
CN(C)S(=O)(=O)C(C(=O)NCC(=O)NC1CC1)c1nc2c(F)cc(-c3ccc(-c4ccccc4)nc3)cc2s1 (stereo not drawn) [Example 498, N-[(cyclopropyl-carbamoyl)methyl]-2-(dimethyl-sulfamoyl)-2-[4-fluoro-6-(6-phenylpyridin-3-yl)-1,3-benzothiazol-2-yl]acetamide]	0.003

Now from value to compound:

IC50 [µM]	SMILES
0.004	CN(C)S(=O)(=O)C(C(=O)NCC(=O)NC1CC1)c1nc2c(F)cc(-c3ccc(N4CCCCC4=O)cc3)cc2s1 (stereo not drawn) [Example 499, N-[(cyclopropyl-carbamoyl)methyl]-2-(dimethyl-sulfamoyl)-2-{4-fluoro-6-[4-(2-oxopiperidin-1-yl)phenyl]-1,3-benzothiazol-2-yl} acetamide]
0.008	CN(C)S(=O)(=O)C(C(=O)NCC(=O)NC1CC1)c1nc2c(F)cc(-c3cnc(-c4ccccc4)nc3)cc2s1 (stereo not drawn) [Example 500, N-[(cyclopropyl-carbamoyl)methyl]-2-(dimethyl-sulfamoyl)-2-[4-fluoro-6-(2-phenylpyrimidin-5-yl)-1,3-benzothiazol-2-yl]acetamide]
0.008	CN(C)S(=O)(=O)C(C(=O)NCC(=O)NC1CC1)c1nc2c(F)cc(-c3ccccc3)cc2s1 (stereo not drawn) [Example 501, N-[(cyclopropyl-carbamoyl)methyl]-2-(dimethyl-sulfamoyl)-2-(4-fluoro-6-phenyl-1,3-benzothiazol-2-yl)acetamide]
0.002	CN(C)S(=O)(=O)C(C(=O)NCC(=O)NC1CC1)c1nc2c(F)cc(-c3cccc(NC(=O)OCc4ccccc4)c3)cc2s1 (stereo not drawn) [Example 502, benzyl N-{3-[2-({[(cyclopropyl-carbamoyl)methyl]carbamoyl} (dimethyl-sulfamoyl)methyl)-4-fluoro-1,3-benzothiazol-6-yl]phenyl} carbamate]
0.021	COC(=O)Nc1cccc(-c2cc(F)c3nc(C(C(=O)NCC(=O)NC4CC4)S(=O)(=O)N(C)C)sc3c2)c1 (stereo not drawn) [Example 503, methyl N-{3-[2-({[(cyclopropyl-carbamoyl)methyl]carbamoyl} (dimethyl-sulfamoyl)methyl)-4-fluoro-1,3-benzothiazol-6-yl]phenyl} carbamate]
0.01	CN(C)S(=O)(=O)C(C(=O)NCC(=O)NC1CC1)c1nc2c(F)cc(-c3ccc(-c4nnn[nH]4)cc3)cc2s1 (stereo not drawn) [Example 504, N-[(cyclopropyl-carbamoyl)methyl]-2-(dimethyl-sulfamoyl)-2-{4-fluoro-6-[4-(1H-1,2,3,4-tetrazol-5-yl)phenyl]-1,3-benzothiazol-2-yl}acetamide]
0.13	CN(C)S(=O)(=O)C(C(=O)NCC(=O)NC1CC1)c1nc2c(F)cc(-c3cccc(-n4cccn4)c3)cc2s1 (stereo not drawn) [Example 505, N-[(cyclopropyl-carbamoyl)methyl]-2-(dimethyl-sulfamoyl)-2-{4-fluoro-6-[3-(1H-pyrazol-1-yl)phenyl]-1,3-benzothiazol-2-yl}acetamide]
0.052	CN(C)S(=O)(=O)C(C(=O)NCC(=O)NC1CC1)c1nc2cc(F)c(-c3cccc(-n4cccn4)c3)cc2s1 (stereo not drawn) [Example 506, N-[(cyclopropyl-carbamoyl)methyl]-2-(dimethyl-sulfamoyl)-2-{5-fluoro-6-[3-(1H-pyrazol-1-yl)phenyl]-1,3-benzothiazol-2-yl} acetamide]
0.016	CN(C)S(=O)(=O)C(C(=O)NCC(=O)NC1CC1)c1nc2cc(F)c(-c3ccc(-c4ccccc4)nc3)cc2s1 (stereo not drawn) [Example 507, N-[(cyclopropyl-carbamoyl)methyl]-2-(dimethyl-sulfamoyl)-2-[5-fluoro-6-(6-phenylpyridin-3-yl)-1,3-benzothiazol-2-yl]acetamide]
0.015	CN(C)S(=O)(=O)C(C(=O)NCC(=O)NC1CC1)c1nc2cc(F)c(-c3ccc(-c4ccccn4)cc3)cc2s1 (stereo not drawn) [Example 508, N-[(cyclopropyl-carbamoyl)methyl]-2-(dimethyl-sulfamoyl)-2-{5-fluoro-6-[4-(pyridin-2-yl)phenyl]-1,3-benzothiazol-2-yl}acetamide]
0.001	O=C(CNC(=O)C(c1nc2cc(F)c(-c3ccc(NC(=O)NCc4ccccc4)cc3)cc2s1)S(=O)(=O)CCC(F)(F)F)NC1CC1 (stereo not drawn) [Example 511, 2-(6-{4-[(benzyl-carbamoyl)amino]phenyl}-5-fluoro-1,3-benzothiazol-2-yl)-N-[(cyclopropyl-carbamoyl)methyl]-2-(3,3,3-trifluoropropane-sulfonyl)acetamide]
0.016	O=C(CNC(=O)C(c1nc2ccc(-c3ccc(F)nc3)cc2s1)S(=O)(=O)Cc1ccc(C(F)(F)F)cc1)NC1CC1 (stereo not drawn) [Example 512, N-[(cyclopropyl-carbamoyl)methyl]-2-[6-(6-fluoropyridin-3-yl)-1,3-benzothiazol-2-yl]-2-{[4-(trifluoromethyl)phenyl]methanesulfonyl} acetamide]

same assay, conditions: EL from conditioned media of HT-1080 cells; 30 min preincubation at 37° C.

IC50 [µM]	SMILES
0.28	O=C(CNC(=O)C(c1nc2ccc(-c3ccc(F)nc3)cc2s1)S(=O)(=O)CCO)NC1CC1 (stereo not drawn) [Example 509, N-[(Cyclopropylcarbamoyl)methyl]-2-[6-(6-fluoropyridin-3-yl)-1,3-benzothiazol-2-yl]-2-(2-hydroxyethanesulfonyl)acetamide]
0.0013	CS(=O)(=O)C(C(=O)NCC(=O)NC1CC1)c1nc2cc(F)c(-c3ccc(NC(=O)OCc4ccccn4)cc3)cc2s1 (stereo not drawn) [Example 510, Pyridin-2-ylmethyl (4-(2-(2-((2-(cyclopropylamino)-2-oxoethyl)amino)-1-(methylsulfonyl)-2-oxoethyl)-5-fluorobenzo[d]thiazol-6-yl)phenyl)carbamate]

— US10173991B2, “Sulfone amide linked benzothiazole inhibitors of endothelial lipase” (BRISTOL-MYERS SQUIBB COMPANY, priority 2014, dated 2019)
